Earlier results in patent US10568966B2, “Formulation for topical wound treatment” (AHMET KILIC, priority 2014, dated 2020).

Tests used:
[1] = CLP-Regulation (EC) No 1272/2008

Molecule	LD50 Acute oral (Rat)	GHS Classification [1]
C=CCCCCCCCCC(=O)NCCC[N+](C)(C)CC(=O)[O-] [Rewoteric ® AM B U 185, Undecylenamidopropyl Betaine]	>2.000 mg/kg	
Cocamidopropyl Betaine [CRODATERIC ™ CAB 30-LQ-(RB)]		Eye Irrit. 2; H319
Lauramidopropyl betaine [CRODATERIC ™ CAB 30-LQ-(TH)]	>4.900 mg/kg	
